Reference: PubChem BioAssay (NCI)
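Dose response: 5 concentrations. Exposure: 48 h. Format: 96-well plates. Endpoint: linear interpolation; highest concentration if not reached. TGI: concentration producing complete growth inhibition.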

Experiments:
Assay in all cases: NCI tumour cell line growth inhibition, 48 h
A549 NSCLC = tested on: A549 NSCLC
ACHN renal = tested on: ACHN renal
HCC-2998 colon = tested on: HCC-2998 colon
HL-60(TB) leukemia = tested on: HL-60(TB) leukemia
HOP-92 NSCLC = tested on: HOP-92 NSCLC
HS 578T breast = tested on: HS 578T breast
K-562 leukemia = tested on: K-562 leukemia
MDA-MB-435 = tested on: MDA-MB-435
NCI-H23 lung = tested on: NCI-H23 lung
OVCAR-5 ovarian = tested on: OVCAR-5 ovarian
OVCAR-8 ovarian = tested on: OVCAR-8 ovarian
RPMI-8226 leukemia = tested on: RPMI-8226 leukemia
RXF 393 renal = tested on: RXF 393 renal
SF-295 CNS = tested on: SF-295 CNS
SK-MEL-28 melanoma = tested on: SK-MEL-28 melanoma
SR leukemia = tested on: SR leukemia
SW-620 colon = tested on: SW-620 colon
T-47D breast = tested on: T-47D breast
TK-10 renal = tested on: TK-10 renal
UO-31 renal = tested on: UO-31 renal

| Structure (SMILES) | TGI (A549 NSCLC) [µM] | TGI (ACHN renal) [µM] | TGI (HCC-2998 colon) [µM] | TGI (HL-60(TB) leukemia) [µM] | TGI (HOP-92 NSCLC) [µM] | TGI (HS 578T breast) [µM] | TGI (K-562 leukemia) [µM] | TGI (MDA-MB-435) [µM] | TGI (NCI-H23 lung) [µM] | TGI (OVCAR-5 ovarian) [µM] | TGI (OVCAR-8 ovarian) [µM] | TGI (RPMI-8226 leukemia) [µM] | TGI (RXF 393 renal) [µM] | TGI (SF-295 CNS) [µM] | TGI (SK-MEL-28 melanoma) [µM] | TGI (SR leukemia) [µM] | TGI (SW-620 colon) [µM] | TGI (T-47D breast) [µM] | TGI (TK-10 renal) [µM] | TGI (UO-31 renal) [µM] |
| --- | --- | --- | --- | --- | --- | --- | --- | --- | --- | --- | --- | --- | --- | --- | --- | --- | --- | --- | --- | --- |
| COc1ccc2nc(N/N=C/c3ccc(C)s3)cc(C)c2c1 | > 100 | 37.8 | 33.5 | > 100 | 43.2 | 55.2 | 49 | 60.6 | 28.6 | 32.6 | 55.7 | 37.3 | 41.6 | 37.8 | > 100 | 61 | > 100 | 46.4 | > 100 | 36.5 |
| C/C(=N\N)C(CN1CCOCC1)C(c1ccccc1)c1c(O)c2ccccc2oc1=O (stereo not given) | > 100 | > 100 | > 100 | > 100 | > 100 | > 100 | > 100 | > 100 | > 100 | > 100 | > 100 | > 100 | > 51.9 | > 100 | > 100 | > 100 | > 100 | > 100 | > 100 | > 100 |
